This is an account of results in PubChem BioAssay AID1918943 (Molecular Pharmacology Branch, DTP, NCI, 2023).

The subject of this test is 855422-203-R-J1-PDC complex spheroid viability. The experiment in a line: Anticancer human tumor 855422-203-R-J1-PDC patient-derived bladder carcinoma cell line growth inhibition. Conditions: for viability, T/C: stronger effect = lower value. The text has this:
Multicellular complex tumor spheroid response to LSD1 Inhibitor Iadademstat in combination with a variety of drugs and investigational agents in selected tumor cell lines
The current study was undertaken to assess response to LSD1 inhibitors in combination with standard-of-care drugs and investigational agents in solid tumor complex spheroid models as well as in the K-562 leukemia. Complex spheroids include a stromal component modeled by human endothelial cells (HUVEC) and fibroblasts modeled by human mesenchymal stem cells (MSCs). The concentration ranges selected for each drug and investigational agent were based upon clinically achievable concentrations if the clinical Cmax of the agent was known.
Compounds. The drugs and investigational agents used in this study are listed on Table 1. All of the agents used, including staurosporine (NSC755774) and gemcitabine (NSC613327), were obtained from the Developmental Therapeutics Program, NCI. FDA-approved anticancer drugs are available from the NCI at http://dtp.nci.nih.gov/branches/dscb/oncology_drugset_explanation.html. Drugs and investigational agents were >95% pure by proton nuclear magnetic resonance (NMR) and liquid chromatography/mass spectrometry (LC/MS). Stock solutions were prepared at 400x in DMSO, stored at -70 degrees C, and diluted in fresh medium prior to their use. The final concentration of DMSO in cell culture wells never exceeded 0.25% (v/v). The FDA-approved anticancer drug set is available from the Developmental Therapeutics Program at https://dtp.cancer.gov/organization/dscb/obtaining/available_plates.htm. All drugs and investigational agents were tested over a range starting from a high concentration at or near the clinical Cmax and decreasing in half-log increments. If the clinical Cmax for an agent had not been determined, the highest concentration tested was 10 microM.
Cell Lines. The patient-derived cancer cell (PDC) lines: 292921-168-R-J2-PDC, K24384-001-R-PDC, and 521955-158-R2-J5-PDC pancreatic carcinomas, 556581-035-R-J1 ovarian carcinoma, 324938-238-R-J1-PDC, 855422-203-R-J1-PDC and 883617-216-R-J1-PDC urothelial bladder carcinomas, 743489-274-T-PDC renal cell carcinoma, 138582-R-J1 Merkel cell tumor, K60290-347-R-J1 and K57222-313-R-J1-PDC glioblastomas, 653999-131-R-J2-PDC, LG0703-F948-PDC, and 349418-098-R-PDC non-small cell lung carcinomas, 885512-296-R-J2-PDC, 171881-019-R-J1-PDC breast carcinomas and 186277-243-T-J2-PDC and 233499-124-R-J2-PDC colon carcinomas were obtained from the NCI Patient-Derived Models Repository (PDMR, https://pdmr.cancer.gov). The established cell lines NCI/ADR-RES (RRID:CVCL_14520 and OVCAR-5 (RRID:CVCL_1628) ovarian carcinomas, 786-O (RRID:CVCL_1051) and A498 (RRID:CVCL_A498) renal cell carcinoma, NCI-H211 (ATCC, cat. CRL-5824; RRID:CVCL_1529), NCI-H196 (ATCC, cat. CRL-5823, RRID:CVCL_1509), SW 1271 (ATCC, cat. CRL-2177, RRID:CVCL_1716) and NCI-H1876 (ATCC, cat. CRL-5902, RRID:CVCL_1503) small cell lung carcinomas, MDA-MB-231 (RRID:CVCL_0062) and MDA-MB-468 (RRID:CVCL_0419)breast carcinomas (10-12). Pooled donor human umbilical vein endothelial cells (HUVEC, Lonza, cat. CC-2519) and human mesenchymal stem cells (hMSC, Lonza, cat. PT-2501) were purchased from Lonza (Walkersville, MD).
Cell Culture. All cells were maintained in an incubator at 37 degrees C and 5% CO2 with 95% humidity. The PDC lines were cultured according to standard operating procedures established by the NCI PDMR (https://pdmr.cancer.gov). Briefly all PDCs were thawed and cultured in Matrigel-coated flasks prepared with a working solution of 1X Ham's F-12 nutrient mix, without supplementation (Invitrogen, Waltham, MA, cat. 11765054), 100 U/mL penicillin-streptomycin (Invitrogen, cat. 15140122), and 2.5% Matrigel (Corning Inc., Corning, NY, cat. 354248) for the first three passages. […]

[1] abbreviates: curve of first compound, second compound 0.1 µM.
Where [2] appears, read: curve of first compound, second compound 0.316 µM.
Setting [3] is: curve of first compound, second compound 1 µM.
The mark [4] stands for this setting: curve of first compound, second compound 3.16 µM.
[5] abbreviates: curve of first compound, second compound 10 µM.
[6] abbreviates: second compound 0.1 µM, first compound 0.0316 µM.
The mark [7] stands for this setting: second compound 0.1 µM, first compound 0.1 µM.
Where [8] appears, read: second compound 0.316 µM, first compound 0.0316 µM.
Where [9] appears, read: second compound 0.316 µM, first compound 0.1 µM.
Setting [10] is: second compound 1 µM, first compound 0.0316 µM.
Setting [11] is: second compound 1 µM, first compound 0.1 µM.
Where [12] appears, read: second compound 3.16 µM, first compound 0.0316 µM.
Setting [13] is: second compound 3.16 µM, first compound 0.1 µM.
The mark [14] stands for this setting: second compound 10 µM, first compound 0.0316 µM.
Setting [15] is: second compound 10 µM, first compound 0.1 µM.

Structures are written as SMILES. Several values for one entry are separate records, joined by “and”; a condition that tells them apart may be missing. Equal entries are not always repeated.
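Further: drug exposure lasted 7 days starting on day 3 after seeding.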
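Wherever viability, T/C is given: luminescence viability as percent of DMSO vehicle wells = 100%.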

On to `CC(C)c1c(-c2ccccc2)nc2c(C#N)c[nH]n2c1=O`, for which the viability, T/C by setting is: (compound 0.0316 µM) 98.3% and 101%; (compound 0.1 µM) 104% and 106%; (compound 0.316 µM) 96.1% and 107%; (compound 1 µM) 104% and 99.9%; (compound 3.16 µM) 94.5% and 99.2%; (compound 10 µM) 95.4% and 90.9%. In addition, under “curve of compound”, the IC50 was > 10000 nM.

With `CC1COCCN1c1cc(C2(S(C)(=N)=O)CC2)nc(-c2ccnc3[nH]ccc23)n1` (stereo not drawn) + NC1CCC(NC2CC2c2ccccc2)CC1, the IC50 by setting is: under setting [1], 5470 nM; under setting [2], 6000 nM; under setting [3], 3140 nM; under setting [4], 2790 nM; under setting [5], 2440 nM. For the same compound, the viability, T/C by setting is: under setting [6], 98.1%; under setting [7], 97.4%; (second compound 0.1 µM, first compound 0.316 µM) 104%; (second compound 0.1 µM, first compound 1 µM) 93.1%; (second compound 0.1 µM, first compound 3.16 µM) 57.6%; (second compound 0.1 µM, first compound 10 µM) 41.7%. Besides, the viability, T/C under setting [8] was 97.4%; the viability, T/C under setting [9] is 101%; the viability, T/C (second compound 0.316 µM, first compound 0.316 µM) was 102%; the viability, T/C (second compound 0.316 µM, first compound 1 µM) was 92.7%; the viability, T/C (second compound 0.316 µM, first compound 3.16 µM) was 60.6%; the viability, T/C (second compound 0.316 µM, first compound 10 µM) was 41.6%. The viability, T/C by setting is: under setting [10], 91.1%; under setting [11], 93.1%; (second compound 1 µM, first compound 0.316 µM) 90.7%; (second compound 1 µM, first compound 1 µM) 87.7%; (second compound 1 µM, first compound 3.16 µM) 49.8%; (second compound 1 µM, first compound 10 µM) 45.7%. The viability, T/C by setting is: under setting [12], 86.2%; under setting [13], 87.9%; (second compound 3.16 µM, first compound 0.316 µM) 93.1%; (second compound 3.16 µM, first compound 1 µM) 83.3%; (second compound 3.16 µM, first compound 3.16 µM) 46%; (second compound 3.16 µM, first compound 10 µM) 43.4%. Further, the viability, T/C runs as follows: under setting [14], 86%; under setting [15], 85.5%; (second compound 10 µM, first compound 0.316 µM) 89.8%; (second compound 10 µM, first compound 1 µM) 77.8%; (second compound 10 µM, first compound 3.16 µM) 42%; (second compound 10 µM, first compound 10 µM) 39.2%.

Take `CC[C@@]1(O)C(=O)OCc2c1cc1n(c2=O)Cc2cc3c(CN(C)C)c(O)ccc3nc2-1` + NC1CCC(NC2CC2c2ccccc2)CC1: the IC50 under setting [1] is 7.48 nM; the IC50 under setting [2] was determined as 6.91 nM; the IC50 under setting [3] was found to be 7.51 nM; the IC50 under setting [4] was 6.75 nM; the IC50 under setting [5] stood at 6.22 nM. The viability, T/C reads like this: (second compound 0.1 µM, first compound 0.000316 µM) 89.9%; (second compound 0.1 µM, first compound 0.001 µM) 93.6%; (second compound 0.1 µM, first compound 0.00316 µM) 82.5%; (second compound 0.1 µM, first compound 0.01 µM) 38.8%; under setting [6], 27.5%; under setting [7], 22.9%. Moreover, the viability, T/C is 90.9% (second compound 0.316 µM, first compound 0.000316 µM); 83.9% (second compound 0.316 µM, first compound 0.001 µM); 77.7% (second compound 0.316 µM, first compound 0.00316 µM); 36.8% (second compound 0.316 µM, first compound 0.01 µM); 24.9% under setting [8]; 21.2% under setting [9]. Moreover, the viability, T/C (second compound 1 µM, first compound 0.000316 µM) is 89.1%; the viability, T/C (second compound 1 µM, first compound 0.001 µM) was 80%; the viability, T/C (second compound 1 µM, first compound 0.00316 µM) is 78.5%; the viability, T/C (second compound 1 µM, first compound 0.01 µM) was 39.9%; the viability, T/C under setting [10] was 32.6%; the viability, T/C under setting [11] was 21.4%. Moreover, the viability, T/C is 77.4% (second compound 3.16 µM, first compound 0.000316 µM); 83.5% (second compound 3.16 µM, first compound 0.001 µM); 74.5% (second compound 3.16 µM, first compound 0.00316 µM); 37.1% (second compound 3.16 µM, first compound 0.01 µM); 25.5% under setting [12]; 21.1% under setting [13]. The viability, T/C runs as follows: (second compound 10 µM, first compound 0.000316 µM) 79.3%; (second compound 10 µM, first compound 0.001 µM) 79.2%; (second compound 10 µM, first compound 0.00316 µM) 66%; (second compound 10 µM, first compound 0.01 µM) 37.2%; under setting [14], 26.9%; under setting [15], 15.9%.

`NC1CCC(NC2CC2c2ccccc2)CC1` (stereo not drawn): the viability, T/C is 89.9% [middle of 25 runs] (compound 0.1 µM); 96.7% and 90.2% (compound 0.316 µM); 86.6% [middle of 25 runs] (compound 1 µM); 87.7% [middle of 25 runs] (compound 3.16 µM); 78.7% [middle of 23 runs] (compound 10 µM). For the same compound, the IC50 (compound alone, run of 11/29/2021) was > 10000 nM.

What is called viability, T/C is the ratio of treated to control. Broadly, the IC50 is the concentration that gives 50% inhibition.
